From publication PMC11985661 (Naunyn-Schmiedeberg's Archives of Pharmacology, 2024)
Read-outs that look alike come from different tables or passages of the source.

Experiments:
MCF-7 = test: MTT cytotoxicity assay; format: cell-based; details: Homo sapiens, read-out: IC50 MCF-7
Method: (§1) Numerous cancer cell lines were procured from the American Type Culture Collection (ATCC) situated in Manassas, USA. […] The culture medium was supplemented with penicillin (100 units/mL), streptomycin ([…]), and heat-inactivated fetal bovine serum (10%). The cultivation of these cancer cells was carried out in a humidified atmosphere with 5% (v/v) CO2 at a temperature of 37 °C.
(§2) The 3-[4,5-dimethylthiazole-2-yl]-2,5-diphenyltetrazolium bromide (MTT) assay was used to evaluate the cytotoxicity of different substances or treatments. A commonly used approach for assessing the viability and proliferation of cells, including the cancer cell lines described, is colorimetric analysis.
(§3) Actively proliferating cells from different cancer cell lines were first trypsinized and quantified. […] These seeded cells were incubated in a humidified environment at 37 °C for 24 h to allow for cell attachment and acclimation.
(§4) Following the initial incubation, the cells were subjected to different doses of the chemicals under investigation, ranging from 0.1 to 1000 μM, for a duration of 72 h. The MTT assay was used to evaluate the treated cells’ vitality. Specifically, the culture media were removed, and the cells were incubated with 200 μl of 5% MTT solution per well.
(§5) Due to this, the MTT dye was metabolized by the living cells over the course of 2 h, forming colorful, insoluble formazan crystals.
(§6) This allowed the viable cells to metabolize the MTT dye into colored, insoluble formazan crystals over a 2-h period. After this incubation, the formazan crystals were dissolved in 200 μl of acidified isopropanol per well for 30 min after the residual MTT solution was withdrawn. This dissolution step was carried out at room temperature with a MaxQ 2000 plate shaker, covered with aluminum foil and continuously shaking.
(§7) The absorbance of the dissolved formazan crystals was measured at 570 nm through the use of Stat FaxR 4200 plate reader.

EGFR^T790M = target: T1, EGFR^T790M (Homo sapiens, UniProt P00533, T790M); test: EGFR^T790M kinase inhibition assay (HTRF); format: biochemical; details: mean of three separate experiments
T1 construct: purchased Sigma
T1 sequence (P00533 25-1210 T790M): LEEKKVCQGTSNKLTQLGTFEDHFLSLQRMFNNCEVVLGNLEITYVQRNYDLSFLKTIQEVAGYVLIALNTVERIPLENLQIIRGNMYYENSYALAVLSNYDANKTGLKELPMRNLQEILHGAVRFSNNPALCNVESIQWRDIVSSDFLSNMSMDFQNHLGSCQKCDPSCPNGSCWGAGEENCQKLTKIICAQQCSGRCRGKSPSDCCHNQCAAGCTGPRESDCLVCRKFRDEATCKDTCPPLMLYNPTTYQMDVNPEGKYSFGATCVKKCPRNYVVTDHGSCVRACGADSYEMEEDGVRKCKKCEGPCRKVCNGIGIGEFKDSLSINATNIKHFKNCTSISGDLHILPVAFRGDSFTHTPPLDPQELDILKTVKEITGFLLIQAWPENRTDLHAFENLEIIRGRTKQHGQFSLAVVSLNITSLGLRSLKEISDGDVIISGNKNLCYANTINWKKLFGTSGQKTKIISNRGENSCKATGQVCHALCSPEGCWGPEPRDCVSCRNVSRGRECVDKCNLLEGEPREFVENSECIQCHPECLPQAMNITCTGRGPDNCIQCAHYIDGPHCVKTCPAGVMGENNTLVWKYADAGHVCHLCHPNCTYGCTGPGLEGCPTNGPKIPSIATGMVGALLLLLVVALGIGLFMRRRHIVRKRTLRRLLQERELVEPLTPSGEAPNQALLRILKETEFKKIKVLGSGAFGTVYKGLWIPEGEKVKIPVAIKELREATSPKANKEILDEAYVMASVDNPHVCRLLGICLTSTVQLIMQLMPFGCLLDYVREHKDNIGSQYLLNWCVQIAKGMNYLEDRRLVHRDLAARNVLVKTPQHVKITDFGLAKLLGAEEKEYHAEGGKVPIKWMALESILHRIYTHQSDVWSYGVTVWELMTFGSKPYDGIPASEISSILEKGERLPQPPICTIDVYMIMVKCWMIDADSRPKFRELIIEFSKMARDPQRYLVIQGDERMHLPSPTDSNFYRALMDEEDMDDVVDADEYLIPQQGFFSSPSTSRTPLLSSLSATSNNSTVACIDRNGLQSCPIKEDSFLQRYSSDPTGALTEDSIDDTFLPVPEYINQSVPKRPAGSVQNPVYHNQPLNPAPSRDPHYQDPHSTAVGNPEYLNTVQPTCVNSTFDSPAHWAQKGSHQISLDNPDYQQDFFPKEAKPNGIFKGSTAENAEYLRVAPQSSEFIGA
Method: The study utilized the homogeneous time resolved fluorescence (HTRF) assay to evaluate the kinase activity of EGFR^T790M mutant. The EGFR^T790M enzyme and ATP were obtained from Sigma. Initially, the tested chemical was first incubated for 5 min with the EGFR^T790M enzyme and its substrates in an enzymatic buffer. This pre-incubation step allowed the compound to interact with the enzyme before the catalytic reaction was initiated. […] The assay was carried out at room temperature for 30 min. The samples were mixed with detection reagents containing EDTA to stop the enzymatic process. The detection phase was allowed to proceed for 1 h. By utilizing GraphPad Prism 5.0 software, the inhibitory potency of the tested compounds was determined by calculating the half-maximal inhibitory concentration (IC50) values. Three independent measurements were done to determine the concentration of each compound.

HCT116 = test: MTT cytotoxicity assay; format: cell-based; details: Homo sapiens, HCT-116, 72 h, mean of three separate experiments
Method: as §1, §2, §3, §4, §5, §6, §7

A549 = test: MTT cytotoxicity assay; format: cell-based; details: Homo sapiens, 72 h, mean of three separate experiments
Method: as §1, §2, §3, §4, §5, §6, §7

HepG2 = test: MTT cytotoxicity assay; format: cell-based; details: Homo sapiens, read-out: IC50 HepG2
Method: as §1, §2, §3, §4, §5, §6, §7

VEGFR-2 = target: T2, VEGFR-2 (Homo sapiens, UniProt P35968); test: In vitro VEGFR-2 kinase assay (Alpha Screen, anti-phosphotyrosine antibody); format: biochemical; details: mean of three separate experiments
T2 construct: purchased Millipore, UK
T2 sequence (P35968 20-1356): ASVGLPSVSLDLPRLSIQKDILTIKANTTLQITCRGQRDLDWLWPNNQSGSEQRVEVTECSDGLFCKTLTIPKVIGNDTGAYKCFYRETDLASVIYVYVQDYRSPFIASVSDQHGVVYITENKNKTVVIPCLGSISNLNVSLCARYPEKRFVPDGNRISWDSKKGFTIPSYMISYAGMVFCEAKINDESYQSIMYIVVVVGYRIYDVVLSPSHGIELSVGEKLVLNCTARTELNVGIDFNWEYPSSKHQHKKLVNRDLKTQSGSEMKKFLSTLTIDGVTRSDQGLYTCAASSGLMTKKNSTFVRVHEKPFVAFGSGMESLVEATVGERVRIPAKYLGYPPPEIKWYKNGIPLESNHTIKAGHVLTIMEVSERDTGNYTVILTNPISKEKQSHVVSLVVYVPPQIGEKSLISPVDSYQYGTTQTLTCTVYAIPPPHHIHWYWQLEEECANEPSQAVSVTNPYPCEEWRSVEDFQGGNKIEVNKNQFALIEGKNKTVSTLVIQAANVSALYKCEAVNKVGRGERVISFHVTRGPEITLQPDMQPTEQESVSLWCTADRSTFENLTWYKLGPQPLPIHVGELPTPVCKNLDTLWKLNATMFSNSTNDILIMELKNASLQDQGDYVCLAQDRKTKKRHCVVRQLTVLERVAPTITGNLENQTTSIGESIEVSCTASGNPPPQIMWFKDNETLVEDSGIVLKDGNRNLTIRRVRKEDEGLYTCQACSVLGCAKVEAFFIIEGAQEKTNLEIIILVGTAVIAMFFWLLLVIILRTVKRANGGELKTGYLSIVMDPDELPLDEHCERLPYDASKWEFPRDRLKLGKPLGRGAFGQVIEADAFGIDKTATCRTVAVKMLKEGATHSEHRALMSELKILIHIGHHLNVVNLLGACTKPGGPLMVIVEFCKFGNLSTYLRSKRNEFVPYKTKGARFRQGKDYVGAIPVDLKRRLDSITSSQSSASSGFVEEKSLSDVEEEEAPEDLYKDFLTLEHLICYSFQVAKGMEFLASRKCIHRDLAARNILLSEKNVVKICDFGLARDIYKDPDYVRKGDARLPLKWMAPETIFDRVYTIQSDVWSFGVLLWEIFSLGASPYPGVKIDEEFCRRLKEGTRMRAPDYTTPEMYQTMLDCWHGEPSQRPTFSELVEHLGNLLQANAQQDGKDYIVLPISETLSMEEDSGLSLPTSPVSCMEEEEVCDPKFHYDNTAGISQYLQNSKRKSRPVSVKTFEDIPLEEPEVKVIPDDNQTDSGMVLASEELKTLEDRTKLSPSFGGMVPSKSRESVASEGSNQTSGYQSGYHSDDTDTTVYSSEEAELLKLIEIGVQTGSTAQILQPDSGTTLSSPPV
Method: Analyzing the assay of VEGFR-2 kinase involved utilizing the Alpha Screen system (PerkinElmer, USA) and an anti-phosphotyrosine antibody in accordance with the manufacturer’s protocol. A solution containing 50 mM Tris–HCl (pH 7.5), 5 mM MnCl2, 5 mM MgCl2, 0.01% Tween-20, and 2 mM DTT was used to conduct the enzyme reactions. A total of 10 μM ATP, 0.1 μg/mL of biotinylated poly-GluTyr (in a 4:1 ratio), and 0.1 nM of VEGFR-2 (Millipore, UK) were all added in the reaction mixture.
After an overnight dark incubation, the plate was read using an ELISA Reader (PerkinElmer, USA). The baseline control was represented by wells with biotinylated poly-GluTyr (4:1) and the enzyme but without ATP, and the reaction control was provided by wells with the substrate and the enzyme but not the tested compounds.
The percentage inhibition was computed by comparing contrasting the compound-treated samples with the control incubations.

SMILES: C#Cc1cccc(Nc2ncnc3cc(OCCOC)c(OCCOC)cc23)c1 [Erlotinib]
- IC50 (MCF-7; MCF7, 72 h): 8.2 µM

SMILES: C[C@@H]1O[C@@H](OC[C@H]2O[C@@H](Oc3c(-c4ccc(O)c(O)c4)oc4cc(O)cc(O)c4c3=O)[C@H](O)[C@@H](O)[C@@H]2O)[C@H](O)[C@H](O)[C@H]1O [Rutin (3), rutin]
- IC50 (EGFR^T790M): 0.66 µM
- IC50 (MCF-7; MCF7, MTT, 72 h, mean of three separate experiments): 12.3 µM
- IC50 (HCT116): 15.6 µM
- IC50 (A549): 8.71 µM
- IC50 (HepG2; HepG2, MTT, 72 h, mean of three separate experiments): 14.9 µM
- IC50 (VEGFR-2): 1.18 µM

SMILES: CNC(=O)c1cc(Oc2ccc(NC(=O)Nc3ccc(Cl)c(C(F)(F)F)c3)cc2)ccn1 [Sorafenib]
- IC50 (HepG2; HepG2, 72 h): 4 µM
